Experimental data from ChEMBL document CHEMBL5665443, “Enzyme Inhibitor Single Concentration assay results for EUbOPEN Chemogenomics Library” (2024).

Key:
Details in all cases: Hit No
[1] = target: Methyl-CpG-binding domain protein 4 (Homo sapiens) (UniProt O95243);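 also: MBD4 activity read as fluorescence at 594 nm from cleavage and release of a quenched duplex DNA oligonucleotide, with APE1 coupled to incise the strand and raise turnover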
Description: Inhibition of MBD4 by quantifying inhibition of MBD4-mediated cleavage and dissociation of quenched duplex DNA oligonucleotides, measured as fluorescence at 594 nm. To generate a functional strand incision and increase turn-over this assay is coupled to APE1.

[2] = target: T1, Adenine DNA glycosylase (Homo sapiens) (UniProt Q9UIF7);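 also: human MUTYH activity read as 594 nm fluorescence from cleavage and release of a quenched DNA duplex, coupled with APE1 for strand incision, lower signal meaning inhibition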
T1 sequence (whole entry): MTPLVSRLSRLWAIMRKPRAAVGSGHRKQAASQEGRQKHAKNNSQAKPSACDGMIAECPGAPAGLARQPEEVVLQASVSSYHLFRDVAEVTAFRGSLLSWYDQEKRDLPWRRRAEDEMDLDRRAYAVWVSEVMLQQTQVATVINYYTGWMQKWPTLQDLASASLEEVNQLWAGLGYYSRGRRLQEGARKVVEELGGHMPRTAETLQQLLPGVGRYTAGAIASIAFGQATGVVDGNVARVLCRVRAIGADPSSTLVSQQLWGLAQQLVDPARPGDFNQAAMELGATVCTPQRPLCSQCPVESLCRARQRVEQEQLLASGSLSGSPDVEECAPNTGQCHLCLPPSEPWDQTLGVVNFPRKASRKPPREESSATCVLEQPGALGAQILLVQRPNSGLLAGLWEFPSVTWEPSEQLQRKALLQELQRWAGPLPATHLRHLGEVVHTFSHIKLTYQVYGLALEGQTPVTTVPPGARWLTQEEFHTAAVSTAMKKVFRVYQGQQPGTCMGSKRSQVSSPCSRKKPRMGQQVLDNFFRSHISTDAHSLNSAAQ
Description: Inhibition of MUTYH by quantifying inhibition of MUTYH-mediated cleavage and dissociation of quenched duplex DNA oligonucleotides, measured as fluorescence at 594 nm. To generate a functional strand incision and increase turn-over this assay is coupled to APE1.

[3] = target: Endonuclease 8-like 1 (Homo sapiens) (UniProt Q96FI4);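 also: fluorescence at 594 nm from quenched duplex DNA oligonucleotides released by NEIL1 cleavage and strand separation, reported as reduction of this enzyme activity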
Endonuclease 8-like 1 (Homo sapiens), sequence (Q96FI4 whole entry): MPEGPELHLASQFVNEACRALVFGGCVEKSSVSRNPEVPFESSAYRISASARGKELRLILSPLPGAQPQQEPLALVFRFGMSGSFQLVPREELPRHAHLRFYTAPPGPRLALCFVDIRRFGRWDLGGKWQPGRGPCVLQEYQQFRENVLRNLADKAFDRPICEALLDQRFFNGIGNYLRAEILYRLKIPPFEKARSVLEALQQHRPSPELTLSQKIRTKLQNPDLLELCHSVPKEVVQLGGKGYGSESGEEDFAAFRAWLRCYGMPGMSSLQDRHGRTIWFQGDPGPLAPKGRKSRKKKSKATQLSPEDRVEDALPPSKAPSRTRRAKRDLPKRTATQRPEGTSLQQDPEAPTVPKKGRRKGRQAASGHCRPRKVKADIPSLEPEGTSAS
Description: Inhibition of NEIL1 by quantifying inhibition of NEIL1-mediated cleavage and dissociation of quenched duplex DNA oligonucleotides, measured as fluorescence at 594 nm.

[4] = target: T2, Endonuclease 8-like 2 (Homo sapiens) (UniProt Q969S2);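 also: fluorescence at 594 nm reports NEIL2 cutting and release of a quenched double-stranded DNA oligo substrate, reduced signal read as inhibition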
T2 sequence (whole entry): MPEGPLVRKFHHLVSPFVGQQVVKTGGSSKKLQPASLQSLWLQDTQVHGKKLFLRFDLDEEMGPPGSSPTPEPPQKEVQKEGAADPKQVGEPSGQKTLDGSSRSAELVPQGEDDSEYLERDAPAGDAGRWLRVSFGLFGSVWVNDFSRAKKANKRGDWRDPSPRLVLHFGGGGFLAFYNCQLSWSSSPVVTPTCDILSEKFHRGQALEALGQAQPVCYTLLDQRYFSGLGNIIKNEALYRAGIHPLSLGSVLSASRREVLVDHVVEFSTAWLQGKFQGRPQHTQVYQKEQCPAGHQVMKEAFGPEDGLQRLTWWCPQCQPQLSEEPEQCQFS
Description: Inhibition of NEIL2 by quantifying inhibition of NEIL2-mediated cleavage and dissociation of quenched duplex DNA oligonucleotides, measured as fluorescence at 594 nm.

[5] = target: T3, Endonuclease III-like protein 1 (Homo sapiens) (UniProt P78549);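 also: enzyme assay tracking NTHL1 cutting and release of a quenched double-stranded DNA oligo substrate, read as fluorescence at 594 nm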
T3 sequence (whole entry): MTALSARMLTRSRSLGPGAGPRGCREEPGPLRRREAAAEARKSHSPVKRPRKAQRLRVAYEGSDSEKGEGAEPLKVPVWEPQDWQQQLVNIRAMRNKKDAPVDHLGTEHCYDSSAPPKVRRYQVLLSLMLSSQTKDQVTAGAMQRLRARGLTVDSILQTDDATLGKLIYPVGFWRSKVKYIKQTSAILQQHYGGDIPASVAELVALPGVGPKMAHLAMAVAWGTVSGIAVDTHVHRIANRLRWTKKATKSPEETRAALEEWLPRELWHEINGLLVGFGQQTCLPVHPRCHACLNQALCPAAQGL
Description: Inhibition of NTHL1 by quantifying inhibition of NTHL1-mediated cleavage and dissociation of quenched duplex DNA oligonucleotides, measured as fluorescence at 594 nm.

[6] = target: N-glycosylase/DNA lyase (Homo sapiens) (UniProt O15527);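 also: OGG1 cleavage of a quenched duplex DNA oligonucleotide, coupled to APE1 for strand incision, read as fluorescence at 594 nm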
N-glycosylase/DNA lyase (Homo sapiens), sequence (O15527 whole entry): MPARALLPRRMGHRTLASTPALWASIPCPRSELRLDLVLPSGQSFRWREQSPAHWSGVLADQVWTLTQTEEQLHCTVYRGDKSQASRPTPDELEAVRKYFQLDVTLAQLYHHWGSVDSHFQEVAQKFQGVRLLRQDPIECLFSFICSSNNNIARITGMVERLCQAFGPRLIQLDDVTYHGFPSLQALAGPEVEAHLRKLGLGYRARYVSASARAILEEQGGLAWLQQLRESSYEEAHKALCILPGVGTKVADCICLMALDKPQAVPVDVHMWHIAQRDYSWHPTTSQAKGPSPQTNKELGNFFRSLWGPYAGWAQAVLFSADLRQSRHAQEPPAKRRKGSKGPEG
Description: Inhibition of OGG1 by quantifying inhibition of OGG1-mediated cleavage and dissociation of quenched duplex DNA oligonucleotides, measured as fluorescence at 594 nm. To generate a functional strand incision and increase turn-over this assay is coupled to APE1.

[7] = target: T4, Single-strand selective monofunctional uracil DNA glycosylase (Homo sapiens) (UniProt Q53HV7);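 also: enzymatic SMUG1 assay coupled with APE1, reading fluorescence at 594 nm released when a quenched double-stranded DNA oligonucleotide substrate is cleaved and separated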
T4 sequence (whole entry): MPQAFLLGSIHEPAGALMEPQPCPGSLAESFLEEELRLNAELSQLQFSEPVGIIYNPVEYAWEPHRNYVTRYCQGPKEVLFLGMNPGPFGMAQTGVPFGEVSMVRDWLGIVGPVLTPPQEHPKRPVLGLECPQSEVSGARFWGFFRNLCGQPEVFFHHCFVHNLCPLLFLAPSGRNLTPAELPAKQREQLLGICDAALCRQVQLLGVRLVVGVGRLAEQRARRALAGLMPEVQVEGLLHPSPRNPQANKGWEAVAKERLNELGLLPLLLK
Description: Inhibition of SMUG1 by quantifying inhibition of SMUG1-mediated cleavage and dissociation of quenched duplex DNA oligonucleotides, measured as fluorescence at 594 nm. To generate a functional strand incision and increase turn-over this assay is coupled to APE1.

[8] = target: G/T mismatch-specific thymine DNA glycosylase (Homo sapiens) (UniProt Q13569);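 also: human TDG cleavage of quenched duplex DNA oligonucleotides coupled to APE1, strand release read as fluorescence at 594 nm, inhibition of TDG activity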
G/T mismatch-specific thymine DNA glycosylase (Homo sapiens), sequence (Q13569 whole entry): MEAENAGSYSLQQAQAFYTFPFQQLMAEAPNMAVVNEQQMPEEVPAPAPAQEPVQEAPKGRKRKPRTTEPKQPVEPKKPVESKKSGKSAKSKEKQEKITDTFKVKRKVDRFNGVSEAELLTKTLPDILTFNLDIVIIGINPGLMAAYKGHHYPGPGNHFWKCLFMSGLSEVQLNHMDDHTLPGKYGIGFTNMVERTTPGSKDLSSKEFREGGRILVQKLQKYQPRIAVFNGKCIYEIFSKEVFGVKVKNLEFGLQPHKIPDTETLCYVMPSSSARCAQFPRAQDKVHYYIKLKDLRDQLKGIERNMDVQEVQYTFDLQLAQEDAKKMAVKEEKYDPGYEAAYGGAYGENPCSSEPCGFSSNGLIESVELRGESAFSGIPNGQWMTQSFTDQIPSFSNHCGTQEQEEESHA
Description: Inhibition of TDG by quantifying inhibition of TDG-mediated cleavage and dissociation of quenched duplex DNA oligonucleotides, measured as fluorescence at 594 nm. To generate a functional strand incision and increase turn-over this assay is coupled to APE1.

[9] = target: Uracil-DNA glycosylase (Homo sapiens) (UniProt P13051);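 also: UNG excision on a quenched double-stranded DNA oligo probe, with APE1 added for strand incision and turnover, read as fluorescence at 594 nm as strands separate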
Uracil-DNA glycosylase (Homo sapiens), sequence (P13051 whole entry): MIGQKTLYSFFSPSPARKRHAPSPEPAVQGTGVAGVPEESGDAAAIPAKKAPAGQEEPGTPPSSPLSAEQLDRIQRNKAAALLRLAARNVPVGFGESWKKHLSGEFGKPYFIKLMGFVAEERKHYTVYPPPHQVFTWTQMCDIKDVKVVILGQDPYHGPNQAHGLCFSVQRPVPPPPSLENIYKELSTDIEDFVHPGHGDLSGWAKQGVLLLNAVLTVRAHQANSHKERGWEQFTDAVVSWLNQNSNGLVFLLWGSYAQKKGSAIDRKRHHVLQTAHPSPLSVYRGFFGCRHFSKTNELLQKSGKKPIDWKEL
Description: Inhibition of UNG by quantifying inhibition of UNG-mediated cleavage and dissociation of quenched duplex DNA oligonucleotides, measured as fluorescence at 594 nm. To generate a functional strand incision and increase turn-over this assay is coupled to APE1.

Methyl-CpG-binding domain protein 4 (Homo sapiens), sequence (O95243 whole entry, the tested form may be a part): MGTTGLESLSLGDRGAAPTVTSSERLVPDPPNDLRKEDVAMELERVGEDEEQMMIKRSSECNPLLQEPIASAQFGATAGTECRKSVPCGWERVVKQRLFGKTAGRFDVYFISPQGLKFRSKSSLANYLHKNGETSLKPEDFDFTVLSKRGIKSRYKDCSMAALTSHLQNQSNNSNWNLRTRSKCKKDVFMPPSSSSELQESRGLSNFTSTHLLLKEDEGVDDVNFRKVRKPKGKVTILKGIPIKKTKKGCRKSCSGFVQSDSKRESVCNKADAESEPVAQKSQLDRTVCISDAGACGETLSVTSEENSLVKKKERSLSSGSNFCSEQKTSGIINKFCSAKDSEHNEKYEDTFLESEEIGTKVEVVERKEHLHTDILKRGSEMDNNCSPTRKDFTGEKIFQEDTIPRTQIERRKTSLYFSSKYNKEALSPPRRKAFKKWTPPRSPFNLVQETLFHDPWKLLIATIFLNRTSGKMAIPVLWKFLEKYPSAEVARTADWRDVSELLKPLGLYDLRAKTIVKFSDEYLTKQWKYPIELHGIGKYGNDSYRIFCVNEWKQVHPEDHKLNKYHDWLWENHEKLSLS

## CCc1ccccc1C(=O)Nc1n[nH]c2c(C)c(F)c(C3C(C#N)=C(C)N(C)C(C)=C3C#N)cc12
[1]; Compound Concentration 1.0 uM
  inhibition: 55%
[1]; Compound Concentration 10.0 uM
  inhibition: 44.9%
[2]; Compound Concentration 1.0 uM
  inhibition: 6.2%
[2]; Compound Concentration 10.0 uM
  inhibition: 2.35%
[3]; Compound Concentration 1.0 uM
  inhibition: 0.0055%
[3]; Compound Concentration 10.0 uM
  inhibition: -6.65%
[4]; Compound Concentration 10.0 uM
  inhibition: 5.63%
[5]; Compound Concentration 1.0 uM
  inhibition: 13.3%
[5]; Compound Concentration 10.0 uM
  inhibition: -1.95%
[6]; Compound Concentration 10.0 uM
  inhibition: 11.1%
[7]; Compound Concentration 1.0 uM
  inhibition: 13.1%
[7]; Compound Concentration 10.0 uM
  inhibition: 29.9%
[8]; Compound Concentration 1.0 uM
  inhibition: 36.9%
[8]; Compound Concentration 10.0 uM
  inhibition: 43.7%
[9]; Compound Concentration 1.0 uM
  inhibition: 1.06%
[9]; Compound Concentration 10.0 uM
  inhibition: 9.1%

## CNC(=O)c1ccc(Nc2ncc(C(F)(F)F)c(NCc3nccnc3N(C)S(C)(=O)=O)n2)cc1
[1]; Compound Concentration 1.0 uM
  inhibition: 13.6%
[1]; Compound Concentration 10.0 uM
  inhibition: 16.6%
[2]; Compound Concentration 10.0 uM
  inhibition: 9.35%
[3]; Compound Concentration 1.0 uM
  inhibition: 3.44%
[3]; Compound Concentration 10.0 uM
  inhibition: 2.28%
[4]; Compound Concentration 1.0 uM
  inhibition: -4.88%
[4]; Compound Concentration 10.0 uM
  inhibition: -7.12%
[5]; Compound Concentration 10.0 uM
  inhibition: -7.86%
[6]; Compound Concentration 1.0 uM
  inhibition: -7.84%
[6]; Compound Concentration 10.0 uM
  inhibition: 4.66%
[7]; Compound Concentration 1.0 uM
  inhibition: 10.4%
[7]; Compound Concentration 10.0 uM
  inhibition: 23.4%
[8]; Compound Concentration 1.0 uM
  inhibition: 43.6%
[8]; Compound Concentration 10.0 uM
  inhibition: 100%
[9]; Compound Concentration 1.0 uM
  inhibition: -2.6%
[9]; Compound Concentration 10.0 uM
  inhibition: 3.52%

## CC(C)(O)CNc1ncc(-c2ccnc(Nc3ccnc(Cl)c3)n2)c(CC2CC2)n1
[1]; Compound Concentration 10.0 uM
  inhibition: -8.47%
[2]; Compound Concentration 10.0 uM
  inhibition: 0.0658%
[3]; Compound Concentration 10.0 uM
  inhibition: -7.52%
[4]; Compound Concentration 10.0 uM
  inhibition: -9.73%
[5]; Compound Concentration 10.0 uM
  inhibition: 5.67%
[6]; Compound Concentration 10.0 uM
  inhibition: -4.97%
[7]; Compound Concentration 10.0 uM
  inhibition: 21.2%
[8]; Compound Concentration 10.0 uM
  inhibition: 44.6%
[9]; Compound Concentration 10.0 uM
  inhibition: -2.03%

## CC(C)S(=O)(=O)c1ccc2nccc(Nc3ccc4scnc4c3)c2c1
[1]; Compound Concentration 10.0 uM
  inhibition: 9.41%
[2]; Compound Concentration 10.0 uM
  inhibition: 18.3%
[3]; Compound Concentration 10.0 uM
  inhibition: -7.92%
[4]; Compound Concentration 10.0 uM
  inhibition: 1.58%
[5]; Compound Concentration 10.0 uM
  inhibition: 9.85%
[6]; Compound Concentration 10.0 uM
  inhibition: 12%
[7]; Compound Concentration 10.0 uM
  inhibition: 32.3%
[8]; Compound Concentration 10.0 uM
  inhibition: 49.5%
[9]; Compound Concentration 10.0 uM
  inhibition: 8%

## CCN(CC)CCCCNc1ncc2cc(-c3cc(OC)cc(OC)c3)c(NC(=O)NC(C)(C)C)nc2n1
[1]; Compound Concentration 1.0 uM
  inhibition: 12%
[2]; Compound Concentration 1.0 uM
  inhibition: 14.1%
[3]; Compound Concentration 1.0 uM
  inhibition: 6.87%
[4]; Compound Concentration 1.0 uM
  inhibition: 3.2%
[5]; Compound Concentration 1.0 uM
  inhibition: -4.79%
[6]; Compound Concentration 1.0 uM
  inhibition: -1.83%
[7]; Compound Concentration 1.0 uM
  inhibition: 21.2%
[8]; Compound Concentration 1.0 uM
  inhibition: 36.3%
[9]; Compound Concentration 1.0 uM
  inhibition: 4.12%

## CN(C)[C@@H]1CCN(c2cc(-c3ccccc3)nc3ccnn23)C1
[1]; Compound Concentration 10.0 uM
  inhibition: 79.8%
[2]; Compound Concentration 10.0 uM
  inhibition: 10.5%
[3]; Compound Concentration 10.0 uM
  inhibition: 4.86%
[4]; Compound Concentration 10.0 uM
  inhibition: 22.2%
[5]; Compound Concentration 10.0 uM
  inhibition: -6.55%
[6]; Compound Concentration 10.0 uM
  inhibition: 7.46%
[7]; Compound Concentration 10.0 uM
  inhibition: 16.1%
[8]; Compound Concentration 10.0 uM
  inhibition: 46.8%
[9]; Compound Concentration 10.0 uM
  inhibition: 7.63%

## C=CC(=O)Nc1ccc2[nH]c(=O)n(C3CCN(Cc4ccc(-c5nc6cc[nH]c(=O)c6cc5-c5ccccc5)cc4)CC3)c2c1
[1]; Compound Concentration 10.0 uM
  inhibition: 24%
[2]; Compound Concentration 10.0 uM
  inhibition: 23.4%
[3]; Compound Concentration 10.0 uM
  inhibition: 3.12%
[4]; Compound Concentration 10.0 uM
  inhibition: 4.67%
[5]; Compound Concentration 10.0 uM
  inhibition: 2.5%
[6]; Compound Concentration 10.0 uM
  inhibition: 49.4%
[7]; Compound Concentration 10.0 uM
  inhibition: 25.8%
[8]; Compound Concentration 10.0 uM
  inhibition: 49%
[9]; Compound Concentration 10.0 uM
  inhibition: 4.17%

## Nc1ncnc2c1ncn2[C@@H]1O[C@H](CO)[C@@H](O)[C@H]1O
[1]; Compound Concentration 10.0 uM
  inhibition: -3.22%
[2]; Compound Concentration 10.0 uM
  inhibition: 17.8%
[3]; Compound Concentration 10.0 uM
  inhibition: 8.25%
[4]; Compound Concentration 10.0 uM
  inhibition: 2.76%
[5]; Compound Concentration 10.0 uM
  inhibition: 2.66%
[6]; Compound Concentration 10.0 uM
  inhibition: -6.13%
[7]; Compound Concentration 10.0 uM
  inhibition: -2.21%
[8]; Compound Concentration 10.0 uM
  inhibition: 6.82%
[9]; Compound Concentration 10.0 uM
  inhibition: -7.49%

## c1ccc(C2CCN(c3cnc4c(N5CCOCC5)nccn34)CC2)cc1
[1]; Compound Concentration 10.0 uM
  inhibition: 75%
[2]; Compound Concentration 10.0 uM
  inhibition: 15.4%
[3]; Compound Concentration 10.0 uM
  inhibition: -3.17%
[4]; Compound Concentration 10.0 uM
  inhibition: -2.53%
[5]; Compound Concentration 10.0 uM
  inhibition: -2.6%
[6]; Compound Concentration 10.0 uM
  inhibition: 16.2%
[7]; Compound Concentration 10.0 uM
  inhibition: 23%
[8]; Compound Concentration 10.0 uM
  inhibition: 55.2%
[9]; Compound Concentration 10.0 uM
  inhibition: 7.59%

## OCCn1cc(-c2ccc3c(c2)CCC3=NO)c(-c2ccncc2)n1
[1]; Compound Concentration 1.0 uM
  inhibition: 48.6%
[2]; Compound Concentration 1.0 uM
  inhibition: -3.03%
[3]; Compound Concentration 1.0 uM
  inhibition: 0.138%
[4]; Compound Concentration 1.0 uM
  inhibition: -7.84%
[5]; Compound Concentration 1.0 uM
  inhibition: 1.48%
[6]; Compound Concentration 1.0 uM
  inhibition: 1.67%
[7]; Compound Concentration 1.0 uM
  inhibition: 16.9%
[8]; Compound Concentration 1.0 uM
  inhibition: 25.9%
[9]; Compound Concentration 1.0 uM
  inhibition: 2.27%

## Cc1ccc(C(=O)Nc2cccc(C(F)(F)F)c2)cc1Nc1nc(-c2cccnc2)nc2c1cnn2C
[1]; Compound Concentration 1.0 uM
  inhibition: 14.1%
[2]; Compound Concentration 1.0 uM
  inhibition: 7.35%
[3]; Compound Concentration 1.0 uM
  inhibition: 6.48%
[4]; Compound Concentration 1.0 uM
  inhibition: 3.74%
[5]; Compound Concentration 1.0 uM
  inhibition: 0.785%
[6]; Compound Concentration 1.0 uM
  inhibition: 5.38%
[7]; Compound Concentration 1.0 uM
  inhibition: 23.8%
[8]; Compound Concentration 1.0 uM
  inhibition: 48.5%
[9]; Compound Concentration 1.0 uM
  inhibition: 6.36%

## CC(C)c1cc(Oc2c(Cl)cc(-n3nc(C#N)c(=O)[nH]c3=O)cc2Cl)n[nH]c1=O
[1]; Compound Concentration 10.0 uM
  inhibition: 53.3%
[2]; Compound Concentration 10.0 uM
  inhibition: 14%
[3]; Compound Concentration 10.0 uM
  inhibition: -7.26%
[4]; Compound Concentration 10.0 uM
  inhibition: 7.67%
[5]; Compound Concentration 10.0 uM
  inhibition: 7.26%
[6]; Compound Concentration 10.0 uM
  inhibition: 28.8%
[7]; Compound Concentration 10.0 uM
  inhibition: 5.92%
[8]; Compound Concentration 10.0 uM
  inhibition: 50.8%
[9]; Compound Concentration 10.0 uM
  inhibition: -0.0293%

## C[C@@]1(Cc2ccc(C#N)cc2)C(=O)N(c2cc(Cl)cc(Cl)c2)c2ncc(C(=O)NC3(c4nc(C5CCC5)no4)CC3)n21
[1]; Compound Concentration 10.0 uM
  inhibition: 57.2%
[2]; Compound Concentration 10.0 uM
  inhibition: -3.98%
[3]; Compound Concentration 10.0 uM
  inhibition: -6.2%
[4]; Compound Concentration 10.0 uM
  inhibition: -9.93%
[5]; Compound Concentration 10.0 uM
  inhibition: -5.89%
[6]; Compound Concentration 10.0 uM
  inhibition: 13.1%
[7]; Compound Concentration 10.0 uM
  inhibition: 14.7%
[8]; Compound Concentration 10.0 uM
  inhibition: 98.8%
[9]; Compound Concentration 10.0 uM
  inhibition: 3.21%

## CC(C)NC(=O)N1CC[C@H](NC2=Nc3cc(F)ccc3N(CC(F)F)c3ccc(Cl)cc32)C1
[1]; Compound Concentration 10.0 uM
  inhibition: 0.374%
[2]; Compound Concentration 10.0 uM
  inhibition: 13.1%
[3]; Compound Concentration 10.0 uM
  inhibition: -1.58%
[4]; Compound Concentration 10.0 uM
  inhibition: -0.0337%
[5]; Compound Concentration 10.0 uM
  inhibition: 4.27%
[6]; Compound Concentration 10.0 uM
  inhibition: -3.5%
[7]; Compound Concentration 10.0 uM
  inhibition: 26.7%
[8]; Compound Concentration 10.0 uM
  inhibition: 62.4%
[9]; Compound Concentration 10.0 uM
  inhibition: 8.59%
